O=c1cc(-c2ccccc2)oc2cc(O)cc(O)c12
solubility (mole fraction)
Settings | in DMF | in acetone | in ethanol | in ethyl acetate | in isopropanol | in methanol | in n-butanol | in n-hexane | in n-propanol | in water
293.2 K | 0.01 | 0.00128 | 0.000455 | 0.000716 | 0.000512 | 0.000226 | 0.000586 | 1.4e-07 | 0.000482 | 4.61e-09
298.2 K | 0.0131 | 0.00143 | 0.000505 | 0.00082 | 0.000614 | 0.000238 | 0.000663 | 2.95e-07 | 0.000569 | 8.63e-09
303.2 K | 0.0152 | 0.00161 | 0.000637 | 0.000893 | 0.000707 | 0.000299 | 0.000833 | 3.8e-07 | 0.000724 | 1.26e-08
308.2 K | 0.0229 | 0.00176 | 0.000709 | 0.00101 | 0.000836 | 0.000324 | 0.000981 | 4.5e-07 | 0.000837 | 2.57e-08
313.2 K | 0.0264 | 0.00205 | 0.000822 | 0.00113 | 0.00104 | 0.000406 | 0.00115 | 6.78e-07 | 0.000971 | 3.96e-08
318.2 K | 0.0328 | 0.00226 | 0.000903 | 0.00134 | 0.00121 | 0.000453 | 0.00138 | 1.08e-06 | 0.00123 | 4.82e-08
323.2 K | 0.0408 | 0.00243 | 0.00113 | 0.00144 | 0.0014 | 0.000576 | 0.0016 | 1.25e-06 | 0.00147 | 8.41e-08
328.2 K | 0.0479 | 0.00281 | 0.00144 | 0.00163 | 0.00185 | 0.000711 | 0.00195 | 1.7e-06 | 0.0017 | 1.28e-07
333.2 K | 0.0568 | – | 0.00171 | 0.00176 | 0.00213 | 0.000813 | 0.00229 | 2.21e-06 | 0.00195 | 1.88e-07
